For data set [1] the following is noted: DSC, according to U.S. Pat. No. 5,463,116; cited from earlier work. For orientation: DSC measures the heat that a sample takes up or gives off during a temperature scan.
The conditions of data set [2]: cited from earlier work.
Data set [3] in a line: Solubility of nateglinide in solvents. Type of data set: physicochemical. The note with it: mixture of methanol, water and a base (source of ammonium ions).

Where a name gives a salt, the structure may show the parent alone. Read-outs that look alike come from different tables or passages of the source.

Consider `CC(C)[C@H]1CC[C@H](C(=O)N[C@H](Cc2ccccc2)C(=O)O)CC1` [B-type, nateglinide], for which, in data set [1], the “stability of crystal form during grinding” value is “unstable and susceptible to change during grinding”.

As for `CC(C)[C@H]1CC[C@H](C(=O)N[C@H](Cc2ccccc2)C(=O)O)CC1` [nateglinide, (−)-N-(trans-4-isoporpylcyclohexanecarbonyl)-D-Phenylalanine], the solubility entry in data set [2] (in acetonitrile) is on record as “sparingly soluble”; in data set [2] (in chloroform) it was “freely soluble”; in data set [2] (in ethanol), “freely soluble”; in data set [2] (in ether), “soluble”; in data set [2] (in methanol) it was “freely soluble”; in data set [2] (in octanol), “sparingly soluble”. Besides, the solubility result in data set [2] (in water) is recorded as “practically insoluble”; in data set [2] (in water, listed as Nateglinide), “insoluble”.

Regarding `CC(C)[C@H]1CC[C@H](C(=O)N[C@H](Cc2ccccc2)C(=O)O)CC1` [Form Phi, nateglinide ammonium salt], in data set [3], the solubility entry is reported as “relatively insoluble”.

Source of the values: patent US20060004102A1, “Polymorphic forms of nateglinide” (priority 2004, published 2006).
